The values below come from US20090054358A1, “Flt3 inhibitors for immune suppression” (THE JOHN HOPKINS UNIVERSITY, priority 2004, published 2009).

“Also recorded” adds a separate entry of the source.

Experiment [1] deals with Dendritic cells (CD11c+ cells). Nature of the experiment: Apoptosis, survival of mature bone-marrow DCs treated with FLT3 inhibitors (FACS, Annexin V). The experiment is classed as cell-based, mice. As to conditions: for survival and stimulation of the DCs: mature DCs, dose-response analysis, in the presence of GM-CSF+/−FL; for apoptosis in DCs (Annexin V binding): 24 hours. As for the experimental part: The survival and function of the DCs was investigated when exposed to FLT3 inhibitors. Mature DCs were incubated in a dose-response analysis to CEP 701, 5214 and AG 1296 in the presence of GM-CSF+/−FL.
Bone marrow (BM) was flushed from the extremities of mice with PBS, red blood cells (RBCs) were lysed in hypotonic buffer, and after washing the cells were plated at 2×10^6 cells/ml in GM-CSF (1000 U/ml) or GM+FL (100 ng/ml) containing medium. On days 2, 4, and 6, non-adherent cells were removed and adherent cells were washed prior to the addition of fresh medium. On day 8, non-adherent mature DCs were harvested, and replated in the absence or presence of CEP-701 at 5 or 50 nM. After 24 hours, cells were then stained for FACS analysis. CD11c+ cells were assessed for MHC class II expression and Annexin V binding (FIG. 1A).
After washing, the cells were plated at 2×10^6 cells/ml in GM-CSF (1000 U/ml)+FL (100 ng/ml) containing medium. On days 2, 4, and 6, non-adherent cells were removed and adherent cells were washed prior to the addition of fresh medium. On day 8, non-adherent mature DCs were harvested, and replated in the absence or presence of AG 1296. After 24 hours, cells were stained for FACS analysis. Dendritic cells (CD11c+ cells) were assessed for CD86 expression and Annexin V binding (FIG. 1B). […] For DCs to activate T cells, they present antigen bound to MHC molecules and express co-stimulatory proteins on their surfaces.

Experiment [2] deals with T cells. Briefly: DC-stimulated proliferation of T cells (3H incorporation). It is filed as cell-based, mice. The method, then:
(§1) FLT3 inhibition decreases DC-based proliferation of T cells. For these experiments, DCs were generated as above from BALBc mice. The cells were left untreated or were treated with CEP701 and then plated with C57BL/6 splenocytes at the ratios shown. After 3 days, ^3H was added, and the proliferation determined. […] In FIG. 2b, BALB/c splenocytes were substituted for DCs, in order to test the inhibition of CEP701 on a standard mixed lymphocyte reaction (MLR). […] To determine whether T cell stimulatory response would be inhibited as a result of exposure to AG1296, two different T cell proliferative assays were conducted. […] In this standard mixed lymphocyte reaction, equal numbers of stimulator and responder cells (10^6 of each) were mixed in a 96 well plate, incubated for 4 days, pulsed with 3H-thymidine, and proliferation was determined by analyzing incorporation of tritium. DC-stimulated proliferation was also determined by incubating BM derived DCs (day 8, as above) at a ratio of 1:10 with responder allogeneic splenocytes, in the presence (10 μm) or absence of AG1296.

In the next experiment the test system is BALB/c splenocytes. Nature of the experiment: Standard mixed lymphocyte reaction (MLR). The experiment is classed as cell-based, mice. As for the experimental part:
as §1

Experiment [3] relates to co-stimulatory molecules B7.2 (CD 86) and B7-DC. Briefly: Expression of co-stimulatory molecules B7.2 (CD 86) and B7-DC on DCs. The experiment is classed as cell-based, Murine. Particulars: AG1296 at 0, 1, or 10 μM. The method, then:
FIG. 6 depicts the treatment of DCs with AG1296 at either 0, 1, or 10 μM and then analyzed for the expression of co-stimulatory molecules B7.2 (CD 86) and B7-DC.
(§2) To investigate the role of FL/FLT3 stimulation in regulating costimulatory protein expression by DC, […] or GM-CSF plus FL, were analyzed by Northern blotting for expression of B7-DC, a member of the B7 family of co-stimulatory molecules. […] The inhibition of FLT3 signaling led to a down-regulation of B7-DC as well as B7.2 (CD 86) in these DCs (FIG. 6).

Experiment [4] has as its system T cells. Briefly: Direct stimulation of T cells on anti-CD3 plates with anti-CD28 antibody. It is filed as cell-based. Particulars: anti-CD3 coated plates, 2 days, 3H. The method, then:
T cells were then stimulated with anti-CD28 antibody. After 2 days, 3H was added, and the proliferation determined.

Experiment [5] has as its system transgenic T cells that are specific for HA. Briefly: In vivo autoreactive T cell expansion in HA transgenic (137) mice given 6.5 T cells. As to conditions: 137 mice treated 3 days prior to and 5 days after T cell transfer.
Experiment [6] in a line: Established experimental autoimmune encephalomyelitis (EAE), MOG 35-55. The experiment is classed as in vivo, C57BL/6 mice. Particulars: 20 mg/kg, started within one day of initial symptoms, scored daily, blinded.
Description: C57BL/6 mice were injected with 100 micrograms of the Established Experimental Allergic Encephalitomyelitis (EAE) inducing peptide MOG 35-55 in CFA with 400 micrograms of Mycobacterium tuberculosis. On the day of immunization and 48 hours later, mice were boosted with pertussis toxin, following standard protocols. […] Scores were as follows: 0 (no symptoms), 0.5 (partial loss of tail tonicity), 1 (full loss of tail tonicity), 2 (affected gait), 2.5 (partial hind limb paralysis) 3 (full hind limb paralysis) 4 (front and hind paralysis) 5 (moribund). 10 mice/group were treated in the study shown.
In experiment [7] the test system is CD11c and NK cell populations. Nature of the experiment: Immune cell populations in spleens and lymph nodes of treated mice (FACS). It is filed as in vivo, BALB/c mice. As to conditions: 20 mg/kg twice a day for 5 days. As for the experimental part: BALB/c mice were treated with 20 mg/kg of CEP701 or vehicle twice a day for 5 days, and then were analyzed for their immune populations. Spleens and lymph nodes were harvested and collagenase digested to release DCs from the stroma. Cells were then washed and analyzed by FACS for the presence of T (CD3+/DX5−), NK (CD3−,DX5+), B (B220+, CD11c−) or DCs (CD11c+).

In the next experiment the test system is axons. Briefly: Degenerating axonal fibers in medial dorsal column of MOG-immunized mice. As to conditions: cervical level 5, 210 days post disease induction, versus vehicle. It is filed as in vivo. From the text: In reference to FIG. 10, intact brain and spinal cords were removed from mice that were immunized with MOG peptide, and either treated with the vehicle control or CEP-701 after symptom onset. Following treatment and scoring, the mice were kept for an additional 2 months, then sacrificed and the CNS prepared for evaluation by preservation in formalin. Thin plastic sections ([…]) were generated from cervical level 5, followed by staining in Toluidine blue and axons were visualized. Total axon numbers and actively degenerating fibers in a predefined area of the medial dorsal column were enumerated by an experienced examiner in a blinded fashion. Plots show the number of degenerating axonal fibers in the defined field area for the sections of CEP-701 treated mice compared to vehicle control mice at 210 days post disease induction.

Another experiment relates to B7-DC. Nature of the experiment: Northern blot for hB7-DC in human bone marrow cells treated with cytokines. It is filed as cell-based. Particulars: FL added to GM-CSF. As for the experimental part: as §2

`CC(C)OCc1ccc2c(c1)c1c3c(c4c(c1n2CCCO)Cc1ccccc1-4)C(=O)NC3` [CEP-5214]: the “apoptosis in DCs” value in experiment [1] (CEP-5214, data not shown) was “confirmed”. The “survival and stimulation of the DCs” value in [1] was “decrease in survival and stimulation”.

In the case of `COc1cc2ncc(-c3ccccc3)nc2cc1OC` [AG1296], the “apoptosis in DCs (Annexin V binding)” value in [1] (AG 1296 at 0, 1, and 10 μM, DCs generated in GM-CSF + FL) is listed as “confirmed; also recorded: induced apoptosis in DCs in a dose-dependent fashion”. Besides, in experiment [1] (AG 1296 at 0, 1, and 10 μM, DCs generated in GM-CSF + FL, listed as AG 1296), the “apoptosis in DCs (Annexin V binding)” value is “induction of apoptosis in a significant fraction of the DCs”. Moreover, the “survival and stimulation of the DCs” value in experiment [1] is “decrease in survival and stimulation”. Moreover, in the experiment with T cells [2] (BM derived DCs 1:10 with allogeneic splenocytes, AG1296 10 μm), the “T cell proliferation induced by DCs” value is reported as “decrease in T cell proliferation; also recorded: inhibited”. For the same molecule, the “mixed lymphocyte reaction proliferation” value in the experiment on BALB/c splenocytes (allogeneic spleen cells, 10^6 each, 4 days, 3H-thymidine, AG1296 10 μm) is “inhibition”. Besides, in [3], the “expression of co-stimulatory molecule B7-DC on DCs” value is “down regulated” and the “expression of co-stimulatory molecule B7.2 (CD 86) on DCs” value was “down regulated”.

Take `C[C@]12O[C@H](C[C@]1(O)CO)n1c3ccccc3c3c4c(c5c6ccccc6n2c5c31)CNC4=O` [CEP-701]: the “proliferation of directly stimulated T cells” value in the experiment with T cells [4] is “does not inhibit their proliferation”. For the same molecule, in [5] (listed as CEP 701), the “autoreactive T cell expansion, as measured by thy 1.1” value is listed as “decreases an in vivo autoreactive immune response”. Moreover, the “autoreactive T cell expansion, as measured by thy 1.1” value in experiment [5] (listed as CEP701) is reported as “decrease in the autoreactive T cell expansion”. For the same molecule, the “apoptosis in DCs (Annexin V binding)” value in experiment [1] (CEP-701 at 5 or 50 nM, DCs generated in GM-CSF alone or GM-CSF and FL) is “induced apoptosis; also recorded: induction of apoptosis in a significant fraction of the DCs”. In addition, the “survival and stimulation of the DCs” value in [1] is “decrease in survival and stimulation”. Besides, the “DC-based proliferation of T cells” value in the experiment on T cells [2] (BALBc DCs treated with CEP701, plated with C57BL/6 splenocytes, 3 days, 3H) was “robust effect on decreasing proliferation of T cells”. For the same molecule, in the experiment with BALB/c splenocytes (BALB/c splenocytes substituted for DCs, CEP701), the “mixed lymphocyte reaction (MLR) response” value is “inhibited”. Also, the “EAE clinical score (0-5)” value in [6] is given as “lower scores”. Further, in [7], the “B (B220+, CD11c−) cell population” value is reported as “no significant change”; the “DC (CD11c+) population” value is “decreases”; the “NK (CD3−,DX5+) population” value is on record as “decreases”; the “T (CD3+/DX5−) cell population” value was “no significant change”. Further, the “number of degenerating axonal fibers (neurodegeneration)” value in the experiment on axons is recorded as “decrease in neurodegeneration”.

B1: FL: FLT3 Ligand (FL), ligand that stimulates the FLT3 receptor (protein, UniProt P49771 27-235, looked up)
Fms-related tyrosine kinase 3 …: TQDCSFQHSPISSDFAVKIRELSDYLLQDYPVTVASNLQDEELCGGLWRLVLAQRWMERLKTVAGSKMQGLLERVNTEIHFVTKCAFQPPPSCLRFVQTNISRLLQETSEQLVALKPWITRQNFSRCLELQCQPDSSTLPPPWSPRPLEATAPTAPQPPLLLLLLLPVGLLLLAAAWCLHWQRTRRRTPRPGEQVPPVPSPQDLLLVEH
Take B1: the “B7-DC expression (Northern blot)” value in the experiment on B7-DC was “greatly up-regulates”.
